Source: US20170266213A1, “USE OF BETA-NICOTINAMIDE MONONUCLEOTIDE IN PREPARATION OF ANTI-AGING DRUGS OR HEALTH-CARE PRODUCTS” (BONTAC BIO-ENGINEERING (SHENZHEN) CO., LTD, priority 2015, published 2017)

Tested on: Kunming mice (aged about 52 weeks)
Test: Mouse survival test
Assay type: in vivo
Procedure: 1.1 Experimental material: β-nicotinamide mononucleotide (NMN)
1.2 Experimental animal: Kunming mice (aged about 52 weeks)
1.3 Administration method:
Blank group: fed on full diet;
Treatment group: fed on full diet supplemented with NMN (containing adjuvants) fully dissolved in water, where a single dose of NMN is 20 mg/Kg body weight/day;
Control group: fed on full diet supplemented with adjuvants equivalent to those in the Treatment group;
Mouse survival test: […] aged 52 weeks were assigned to two groups (that is, a blank control group and a treatment group) at random, each group having 40 animals.
Experimental method: see Function Evaluation procedures and Specification of test methods for health food—(2003 Edition, the Ministry of Health).

In the case of `NC(=O)c1ccc[n+]([C@@H]2O[C@H](COP(=O)([O-])O)[C@@H](O)[C@H]2O)c1` [NMN, β-nicotinamide mononucleotide], the “extension of the lifespan of mice” value (NMN 20 mg/Kg body weight/day, versus blank and control groups (Table 1)) is reported as “about 29%”, the “Morbility over 100 weeks (%)” value (aged 52 weeks at start, NMN 20 mg/Kg body weight/day in full diet, 100 weeks) is reported as 38% and the “Morbility over 120 weeks (%)” value (aged 52 weeks at start, NMN 20 mg/Kg body weight/day in full diet, 120 weeks) is reported as 52%. For the same compound, the “Morbility over 140 weeks (%)” value (aged 52 weeks at start, NMN 20 mg/Kg body weight/day in full diet, 140 weeks) was 61%, the “Morbility over 160 weeks (%)” value (aged 52 weeks at start, NMN 20 mg/Kg body weight/day in full diet, 160 weeks) was 74% and the “Morbility over 180 weeks (%)” value (aged 52 weeks at start, NMN 20 mg/Kg body weight/day in full diet, 180 weeks) was 100%. For the same compound, the “effect on the lifespan of mice (in words)” value (composition containing NMN) was “obviously extend the lifespan of mice”.
